In patent publication US20250101204A1, “COMPOSITIONS AND METHODS FOR PROTECTING AGAINST CELL DAMAGE AND INFLAMMATION” (priority 2022, published 2025):
Numbering of substitutions follows the chain as printed. “Also recorded” adds a separate entry of the source. Where two headings read alike, the source gives them in different places. Peptide text beside a SMILES is read from it. * marks the point of attachment. Cbz = O=C(OCc1ccccc1)*

How the values were obtained:
HMGB1 [1] = biological target: T1, HMGB1 (Homo sapiens, UniProt P09429); test: HMGB1 cytosol/nuclear distribution in fractionated PASMC; assay type: cell-based; details: for cytosol and nuclear levels of HMGB1: PASMC cytosolic and nuclear fraction; for exit of nuclear HMGB1 to the cytosol: especially evident in male cells
T1 construct: endogenous in cells; host or cells: pulmonary artery smooth muscle cells (PASMC), male and female
T1 sequence (P09429 1-215): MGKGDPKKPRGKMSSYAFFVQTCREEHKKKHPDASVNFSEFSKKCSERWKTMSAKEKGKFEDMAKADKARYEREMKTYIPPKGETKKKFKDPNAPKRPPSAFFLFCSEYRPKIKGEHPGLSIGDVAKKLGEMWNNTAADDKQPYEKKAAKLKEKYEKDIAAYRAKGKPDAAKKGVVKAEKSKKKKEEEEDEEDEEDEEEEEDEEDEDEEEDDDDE
Excerpt: FIGS. 1A, 1B, 1C, and 1D show only intracellular Cysteine^106 lowers HMGB1 levels in both fractions. FIGS. 1A and 1B show peptides that bind to HMGB1^Cys106 but not HMGB1^Cys23/45 reduce HMGB1 levels in PASMC cytosolic and nuclear fraction.
FIGS. 2A and 2B show […] increases HMGB1 expulsion from the nucleus to cytosol. A proteasome inhibitor (e.g., MG 132) restores cytosolic (FIG. 2A) and nuclear (FIG. 2B) HMGB1 levels reduced by αHMGB1^Cys106 peptide.
(§1) To study the activities of HMGB1 cysteines, peptides were designed that bind to the specific regions of HMGB1 and, by shielding either Cys106 or Cys23/45, prevent their interaction with the downstream targets. The peptides with cell-penetrating TAT sequences were used to study the intracellular role of HMGB1 cysteines, while peptides without TAT served as extracellular controls. Fractionating pulmonary artery smooth muscle cells (PASMC) allowed the evaluation of HMGB1 cytosol/nuclear distribution. […] The protective role of peptide in vivo was estimated using the rat Sugen/Hypoxia PH model. Given the discovered sex difference in the HMGB1-mediated signaling, the in vitro and in vivo studies were replicated in male and female animals and cells.
(§2) To study the activities of HMGB1 cysteines, peptides were designed with cell-penetrating TAT sequences that bind to either Cys106 or Cys23/45 and prevent the interaction of these cysteines with the downstream targets. The intracellular activities of peptides were evaluated by measuring HMGB1 cytosol/nuclear distribution and the ability to regulate the recombinant HMGB1 binding to double-stranded DNA. The protective role of the Cys106-shielding peptide (αHMGB1^Cys106; SEQ ID NO: 4) was estimated using the rat Sugen/Hypoxia (Su/Hx) PAH model and human endothelial pulmonary artery cells (hPAEC).

HMGB1 [2] = biological target: T2, HMGB1 (Rattus norvegicus, UniProt P63159); test: plasma HMGB1 levels in Su/Hx rats; assay type: in vivo
T2 construct: from tissue; host or cells: plasma of Su/Hx rats
T2 sequence (P63159 1-215): T1 sequence (P09429 1-215) with E189D, D202E
Excerpt: FIGS. 11A and 11B show the sex differences in plasma HMGB1 levels in response to αHMGB1^Cys106 peptides (e.g., SEQ. ID NO: 4) in early PH stages. Note: SU2 is related to the 2 weeks after exposure to SU5416 (PAH inducer), and is indicative of a relatively early disease stage; SU5 means 5 weeks after exposure to SU5416, and is indicative of an advanced stage of the disease.
The cytosol and nuclear levels of HMGB1 were affected by a cell-penetrating peptide designed to shield Cys106 (TAT-α-HMGB1^Cys106, or α-Cys106) and not any other peptide.

[3] = system: human pulmonary artery endothelial cells (HPAEC); test: apoptosis in HPAEC stimulated by RITA; assay type: cell-based
Protocol: as §2

[4] = system: human pulmonary artery endothelial cells (HPAEC); test: genotoxic stress induced in HPAEC by Doxorubicin; assay type: cell-based; details: Doxorubicin 1 μg/ml for 24 h
Protocol: as §2

TLR4 = test: cytosolic and nuclear TLR4 protein levels; assay type: cell-based
Excerpt: as §1

[5] = system: lungs and heart of Su/Hx rats; test: lung and heart cell damage readouts in Su/Hx rats (apoptosis, senescence, necroptosis, genotoxic stress, fibrosis, hypertrophy); assay type: in vivo, rat; details: for genotoxic stress in vivo: Su/Hx rats, in b88 males; for senescence: female and early-stage male PAH
[6] = system: rat Sugen/Hypoxia (Su/Hx) PAH model; test: rat Sugen/Hypoxia (Su/Hx) PAH model, hemodynamics and right ventricle; assay type: in vivo; details: for right ventricle (RV) systolic pressure / protection of the RV: females, 2.5 mg/kg/day i.p.; for right ventricle (RV) systolic pressure: early stage of PH; for protection of the RV: later stage of PH; for hemodynamic parameters / protection in males: male PH rats
Excerpt: as §1, with “cells. […]” for “cells.”
as §2, with “(hPAEC). […]” for “(hPAEC).”

[7] = biological target: T3, recombinant fully reduced HMGB1 (Homo sapiens, UniProt P09429); test: HMGB1 binding to calf thymus double-stranded DNA cellulose with or without shielding peptide; assay type: biochemical
T3 sequence (P09429 1-215): T1 sequence (P09429 1-215)
Protocol: The left two gel blots show HMGB1 elution after incubation with DNA cellulose.
as §1
as §2, with “The protective role of the Cys106-shielding peptide (αHMGB1^Cys106; SEQ ID NO: 4) was estimated using the rat Sugen/Hypoxia (Su/Hx) PAH model and human endothelial pulmonary artery cells (hPAEC).” left out

p53 [8] = test: p53 levels in nuclei of PASMC; assay type: cell-based
Excerpt: as §1

apoptosis = test: cell apoptosis induced by the p53 activator; assay type: cell-based
p53 [9] = test: p53 expression in vivo in Su/Hx rats; parameters: species or system rat; details: either sex
[10] = listed as α-Cys106, 2.5 mg/kg/day

Molecule: CC(C)C[C@@H](C=O)NC(=O)[C@H](CC(C)C)NC(=O)[C@H](CC(C)C)NC(=O)OCc1ccccc1 [MG 132, reference compound] (Cbz-Leu-Leu-Leu-aldehyde)
- cytosolic and nuclear HMGB1 levels reduced by αHMGB1^Cys106 peptide, effect of proteasome inhibitor (HMGB1 [1]; FIGS. 2A, 2B): restores

Molecule: FFLFCSEYRPKIKGRKKRRQRRRPQ [αHMGB1^Cys106 peptide, cell-penetrating TAT peptide designed to shield HMGB1 Cys106]
- plasma HMGB1 levels (HMGB1 [2]; females, 2.5 mg/kg/day i.p.): reduced plasma HMGB1 levels
- plasma HMGB1 (HMGB1 [2]; male PH rats): no changes
- degradation of HMGB1 (HMGB1 [1]): lysosomal degradation
- cytosol and nuclear levels of HMGB1 (HMGB1 [1]): reduced; also recorded: affected
- cytosol and nuclear levels of HMGB1 (HMGB1 [1]; listed as HMGB1^Cys106 peptide): reduces HMGB1 levels
- cytosol and nuclear levels of HMGB1 (HMGB1 [1]; listed as TAT-α-HMGB1^Cys106): affected
- exit of nuclear HMGB1 to the cytosol (HMGB1 [1]): enhancing the nuclear HMGB1 exit to the cytosol
- exit of nuclear HMGB1 to the cytosol (HMGB1 [1]; listed as α-Cys106): enhanced the exit of nuclear HMGB1 to the cytosol
- degradation of HMGB1 (HMGB1 [1]; listed as α-Cys106): induced its proteasomal degradation
- HMGB1 level in PASMC (HMGB1 [1]; relative to untreated 1±0.097, N=6): 0.428±0.045
- HMGB1 level in PASMC with proteasome inhibitor (HMGB1 [1]; α-Cys106 plus proteasome inhibitor MG132, 10 μM, 1 hr, untreated 1±0.097, N=6): 0.885±0.049
- apoptosis in HPAEC [3]: anti-apoptotic effect
- genotoxic stress in HPAEC [4]: protective effect
- TLR4 protein levels / expression (TLR4): reduces cytosolic and nuclear TLR4 protein levels
- TLR4 protein levels / expression (TLR4; listed as α-Cys106): negatively affected
- genotoxic stress in vivo [5]: protects against genotoxic stress
- genotoxic stress in vivo ([5]; listed as αHMGB1^Cys106): inhibited genotoxic stress
- apoptosis in the lungs ([5]; female Su/Hx rats): decreases apoptosis; also recorded: mediates protection against apoptosis
- apoptosis in the lungs ([5]; female Su/Hx rats, listed as α-Cys106): anti-apoptotic effect
- apoptosis in the lungs ([5]; female Su/Hx rats, listed as αHMGB1^Cys106): reduced pulmonary apoptosis and senescence
- senescence [5]: protects against senescence
- senescence ([5]; listed as αHMGB1^Cys106): reduced pulmonary apoptosis and senescence
- cardiac fibrosis ([5]; heart of male Su/Hx rats): anti-fibrotic activity
- apoptosis in the lungs ([5]; male Su/Hx rats): does not manifest
- necroptosis ([5]; males at early PAH): protects against necroptosis
- cardiomyocyte hypertrophy ([5]; rat, in vivo): protective effect
- right ventricle systolic pressure ([6]; female Su/Hx rats, preventive study, 2.5 mg/kg/day i.p. for 2 wks, Su/Hx alone 73.2±3.4, p=0.0002): 50.4±3.0 mmHg
- right ventricle systolic pressure ([6]; female Su/Hx rats, treatment study, 2.5 mg/kg/day i.p. for 2 wks, Su/Hx alone 110.5±6.3, p=0.0005): 70.0±2.8 mmHg
- right ventricle (RV) systolic pressure ([6]; 2.5 mg/kg/day): decreases right ventricle (RV) systolic pressure
- right ventricle (RV) systolic pressure [6, 10]: decreased right ventricle (RV) systolic pressure
- protection of the RV ([6]; 2.5 mg/kg/day): protects the RV
- protection of the RV [6, 10]: protected the RV
- hemodynamic parameters / protection in males [6]: protected only by treatment protocol
- hemodynamic parameters / protection in males ([6]; listed as α-Cys106): no changes
- right ventricle systolic pressure ([6]; male Su/Hx rats, treatment protocol, 2.5 mg/kg/day i.p. for 2 wks, Su/Hx alone 101.7±2.7, p=0.0007, N=5-8): 73.4±6.4 mmHg
- PAH severity in Su/Hx model ([6]; rat Su/Hx, 2.5 mg/kg/day i.p. for 2 wks, 2.5 mg/kg/day): protective and treatment effects; also recorded: significantly attenuated PAH
- HMGB1 binding to DNA (HMGB1 elution after incubation with DNA cellulose) ([7]; FIG. 3): prevents HMGB1 binding to DNA
- decrease in HMGB1 binding to DNA ([7]; recombinant HMGB1, double-stranded DNA cellulose): ~5.9 fold
- p53 levels / expression (p53 [8]): reduces p53 levels
- p53 levels / expression (p53 [8]; listed as α-Cys106): negatively affected
- cell apoptosis (apoptosis): attenuates apoptosis
- cell apoptosis (apoptosis; listed as α-Cys106): reduced cell apoptosis
- expression of p53 in vivo (p53 [9]): reduces expression of p53
- expression of p53 in vivo (p53 [9]; listed as αHMGB1^Cys106): negative regulation of p53 expression

Molecule: SIGDVAKKLGEMWNNGRKKRRQRRRPQ [HMGB1^Cys23/45]
- cytosol and nuclear levels of HMGB1 (HMGB1 [1]): not
